Experimental data taken from PubChem BioAssay (NCI).
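Cells were grown in 96-well plates and exposed to each compound for 48 hours at five concentrations; endpoints were interpolated linearly between bracketing concentrations, or set to the highest concentration if not reached. At the TGI there is no net growth.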

Assays:
Experiment in all cases: growth of human tumour cells (NCI), 48 h
MALME-3M melanoma = system: MALME-3M melanoma
KM12 colon = system: KM12 colon
HOP-62 NSCLC = system: HOP-62 NSCLC
OVCAR-3 ovarian = system: OVCAR-3 ovarian
NCI-H460 lung = system: NCI-H460 lung
OVCAR-4 ovarian = system: OVCAR-4 ovarian
KM20L2 colon = system: KM20L2 colon
CCRF-CEM leukemia = system: CCRF-CEM leukemia
CAKI-1 renal = system: CAKI-1 renal
786-0 renal = system: 786-0 renal
HL-60(TB) leukemia = system: HL-60(TB) leukemia
SF-268 CNS = system: SF-268 CNS
SNB-19 CNS = system: SNB-19 CNS
SK-OV-3 ovarian = system: SK-OV-3 ovarian
SK-MEL-28 melanoma = system: SK-MEL-28 melanoma
COLO 205 colon = system: COLO 205 colon
SR leukemia = system: SR leukemia
UACC-257 melanoma = system: UACC-257 melanoma
LOX IMVI melanoma = system: LOX IMVI melanoma
M19-MEL melanoma = system: M19-MEL melanoma
U251 CNS = system: U251 CNS
SN12C renal = system: SN12C renal
UACC-62 melanoma = system: UACC-62 melanoma
HCC-2998 colon = system: HCC-2998 colon
A549 NSCLC = system: A549 NSCLC
SF-295 CNS = system: SF-295 CNS
EKVX NSCLC = system: EKVX NSCLC
ACHN renal = system: ACHN renal
MOLT-4 leukemia = system: MOLT-4 leukemia
DMS 273 small cell lung = system: DMS 273 small cell lung
HT29 colon = system: HT29 colon
NCI-H226 lung = system: NCI-H226 lung
OVCAR-5 ovarian = system: OVCAR-5 ovarian
M14 melanoma = system: M14 melanoma
SW-620 colon = system: SW-620 colon
A498 renal = system: A498 renal
SF-539 CNS = system: SF-539 CNS
RXF 393 renal = system: RXF 393 renal
RPMI-8226 leukemia = system: RPMI-8226 leukemia
HCT-116 colon = system: HCT-116 colon
NCI-H522 lung = system: NCI-H522 lung
UO-31 renal = system: UO-31 renal
DMS 114 small cell lung = system: DMS 114 small cell lung
TK-10 renal = system: TK-10 renal
NCI-H23 lung = system: NCI-H23 lung
OVCAR-8 ovarian = system: OVCAR-8 ovarian
IGROV1 ovarian = system: IGROV1 ovarian
SNB-78 CNS = system: SNB-78 CNS
HCT-15 colon = system: HCT-15 colon
SK-MEL-2 melanoma = system: SK-MEL-2 melanoma
K-562 leukemia = system: K-562 leukemia

Measured: TGI

CN(C)c1ccc(C=NC23CC4CC(CC(C4)C2)C3)cc1
> 100 µM: MALME-3M melanoma | KM12 colon | HOP-62 NSCLC | OVCAR-3 ovarian | NCI-H460 lung | OVCAR-4 ovarian | KM20L2 colon | CCRF-CEM leukemia | CAKI-1 renal | 786-0 renal | HL-60(TB) leukemia | SF-268 CNS | SNB-19 CNS | SK-OV-3 ovarian | SK-MEL-28 melanoma | COLO 205 colon | SR leukemia | UACC-257 melanoma | LOX IMVI melanoma | M19-MEL melanoma | U251 CNS | SN12C renal | UACC-62 melanoma | HCC-2998 colon | A549 NSCLC | SF-295 CNS | EKVX NSCLC | ACHN renal | MOLT-4 leukemia | DMS 273 small cell lung | HT29 colon | NCI-H226 lung | OVCAR-5 ovarian | M14 melanoma | SW-620 colon | A498 renal | SF-539 CNS | RXF 393 renal | RPMI-8226 leukemia | HCT-116 colon | NCI-H522 lung | UO-31 renal | DMS 114 small cell lung | TK-10 renal | NCI-H23 lung | OVCAR-8 ovarian | IGROV1 ovarian | SNB-78 CNS | HCT-15 colon | SK-MEL-2 melanoma | K-562 leukemia
